28 compounds from ChEMBL document CHEMBL4808186, “Structure-Based Discovery of Pyrimidine Aminobenzene Derivatives as Potent Oral Reversal Agents against P-gp- and BCRP-Mediated Multidrug Resistance” (J Med Chem, 2021) can be followed below.

SMILES strings stand for the structures. Calls of active or inactive are those of the source. The calls are words filed in the database; no cut-off is given here. A value given as a limit tells only on which side of the number the result lay.

Series [1] is described as follows: n-Octanol/water partition coefficient, logP of the compound by UHPLC analysis. The class given is physicochemical.
The subject of series [2] is MDCK-II. In words: cells. The settings on record: Canis lupus familiaris, 48 h.
The subject of series [3] is MDCK-II. Put plainly: cells. Conditions: Canis lupus familiaris, 48 h. This is another data set of the same source.
For series [4], the system named is K562. Put plainly: Cytotoxicity against human K562 cells incubated for 48 hrs by MTT assay. The class given is functional, cell-based. Conditions: K562, 48 h. On the technique in general: Tetrazolium assays rely on reduction of a dye to a coloured formazan, in cell work by metabolically active cells.
The test system of a further series is K562/A02. Put plainly: Cytotoxicity against P-gp overexpressing human K562/A02 cells incubated for 48 hrs by MTT assay. The class given is functional, cell-based. Conditions: K562/A02, 48 h.
Series [5] deals with T1, ATP-dependent translocase ABCB1 (Homo sapiens, UniProt P08183). Put plainly: Inhibition of P-gp-mediated multidrug resistance in human K562/A02 cells assessed as Adriamycin accumulation pretreated 1 hr followed by treated with adriamycin measured after 180 mins by flow cytometry. The class given is cell-based. Conditions: k562/a02, 4 h, time 240 min. On the technique in general: Flow cytometry measures light scatter and fluorescence of single cells or particles in a stream.

In series [6] the target is T1, ATP-dependent translocase ABCB1. In words: Inhibition of P-gp-mediated multidrug resistance in human K562/A02 cells assessed as Adriamycin accumulation at 1 to 10 uM pretreated 1 hr followed by treated with adriamycin measured after 180 mins by fluorescence microscopy. The class given is cell-based. Conditions: k562/a02, 4 h, dose 1-10 µM, time 240 min.
For series [7], the system named is K562. Put plainly: cells. Conditions: Homo sapiens, K562, 48 h, read-out: Activity.
Series [8] deals with MDCK-II. In words: Inhibition of BCRP-mediated multidrug resistance in MDCK-II cells assessed as mitoxantrone accumulation at 0.1 to 5 uM pretreated 1 hr followed by treated with mitoxantrone measured after 180 mins by flow cytometry. The class given is cell-based. Conditions: Canis lupus familiaris, dose 0.1-5 µM, time 240.0 min.

T1 sequence (P08183 whole entry): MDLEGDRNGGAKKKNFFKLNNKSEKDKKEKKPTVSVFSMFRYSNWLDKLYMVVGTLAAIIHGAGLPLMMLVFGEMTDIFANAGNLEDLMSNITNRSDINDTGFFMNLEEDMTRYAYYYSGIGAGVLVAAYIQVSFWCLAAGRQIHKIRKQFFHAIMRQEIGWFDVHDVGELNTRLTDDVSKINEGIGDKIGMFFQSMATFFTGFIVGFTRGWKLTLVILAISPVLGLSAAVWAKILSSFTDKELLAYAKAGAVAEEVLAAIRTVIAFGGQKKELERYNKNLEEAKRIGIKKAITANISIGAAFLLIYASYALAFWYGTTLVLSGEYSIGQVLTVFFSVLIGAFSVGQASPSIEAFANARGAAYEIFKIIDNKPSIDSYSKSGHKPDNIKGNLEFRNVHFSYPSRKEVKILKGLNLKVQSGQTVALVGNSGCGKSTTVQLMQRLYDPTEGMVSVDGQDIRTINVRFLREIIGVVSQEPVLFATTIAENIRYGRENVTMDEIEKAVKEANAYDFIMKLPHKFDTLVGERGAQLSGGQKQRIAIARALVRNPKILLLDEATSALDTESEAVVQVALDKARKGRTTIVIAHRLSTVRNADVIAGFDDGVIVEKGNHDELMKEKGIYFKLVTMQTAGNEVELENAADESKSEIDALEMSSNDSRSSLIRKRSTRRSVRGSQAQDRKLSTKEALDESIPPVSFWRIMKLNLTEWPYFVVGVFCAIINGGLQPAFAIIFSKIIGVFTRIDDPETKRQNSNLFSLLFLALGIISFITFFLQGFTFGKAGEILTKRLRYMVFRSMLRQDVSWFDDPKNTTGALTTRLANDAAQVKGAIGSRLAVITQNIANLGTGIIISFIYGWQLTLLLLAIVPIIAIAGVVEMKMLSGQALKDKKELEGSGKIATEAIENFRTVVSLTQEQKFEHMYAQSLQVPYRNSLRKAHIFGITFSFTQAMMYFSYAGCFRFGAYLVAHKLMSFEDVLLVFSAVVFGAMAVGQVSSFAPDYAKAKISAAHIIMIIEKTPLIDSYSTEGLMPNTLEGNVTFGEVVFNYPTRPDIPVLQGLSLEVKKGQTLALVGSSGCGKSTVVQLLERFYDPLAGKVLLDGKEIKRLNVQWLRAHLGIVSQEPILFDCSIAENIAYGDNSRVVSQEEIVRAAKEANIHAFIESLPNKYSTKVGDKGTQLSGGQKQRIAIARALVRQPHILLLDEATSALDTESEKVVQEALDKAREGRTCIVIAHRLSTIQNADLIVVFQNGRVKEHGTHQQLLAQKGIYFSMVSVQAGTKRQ

As to `COc1cc2c(cc1OC)CN(CCc1ccc(NC(=O)c3ccc(C)c(Nc4nccc(-c5ccccc5)n4)c3)cc1)CC2`, the logP in series [1] was 1.89. Also, the half-maximal inhibitory concentration (IC50) is above 100 µM with MDCK-II [2], 79.7 µM in the series with MDCK-II [3], above 100 µM in the series with K562 [4] and above 100 µM with K562/A02 (read-out: IC50).
Take `COc1cc2c(cc1OC)CN(CCc1ccc(NC(=O)c3ccc(C)c(Nc4nccc(-c5ccc(C)cc5)n4)c3)cc1)CC2`: the IC50 in the series with MDCK-II [2] was above 100 µM; in the series with MDCK-II [3] it was 61.3 µM; with K562 [4], above 100 µM.
Compound `COc1cc2c(cc1OC)CN(CCc1ccc(NC(=O)c3ccc(C)c(Nc4nccc(-c5cccnc5)n4)c3)cc1)CC2` returned a logP in [1] of 1.86. The IC50 in the series on MDCK-II [2] was above 100 µM; in the series with MDCK-II [3], above 100 µM; in the series on K562 [4], above 100 µM; in the series with K562/A02 (read-out: IC50), 60.4 µM.
With `COc1cc2c(cc1OC)CN(CCc1ccc(NC(=O)c3cc(=O)c4c(OC)cccc4o3)cc1)CC2`, the logP in series [1] was found to be 0.76. Besides, the IC50 with MDCK-II [2], in the series with MDCK-II [3], in the series with K562 [4] and in the series with K562/A02 (read-out: IC50) was above 100 µM in each case.
Turning to `COc1cc2c(cc1OC)CN(CCc1ccc(NC(=O)c3cc(=O)c4ccccc4o3)cc1)CC2`, the logP in [1] was determined as 0.93. In addition, the IC50 with MDCK-II [2], in the series on MDCK-II [3], in the series with K562 [4] and with K562/A02 (read-out: IC50) was above 100 µM each time.
For the compound `COc1ccc(CCN(C)CCCC(C#N)(c2ccc(OC)c(OC)c2)C(C)C)cc1OC` (stereo unspecified), the Activity result is “Dose-Dependent Effect” in [5] and “Active” in series [6]. Besides, the half-inhibitory concentration (IC50) with K562 [4] and with K562/A02 (read-out: IC50) was above 100 µM throughout.
As for `COc1cc2c(cc1OC)CN(CCc1ccc(NC(=O)c3cc(=O)c4c(O)cccc4o3)cc1)CC2`, the logP in series [1] is 1.78. Also, the IC50 in the series on MDCK-II [2] is 85.7 µM; in the series on MDCK-II [3] it was 68.4 µM; in the series on K562 [4], above 100 µM; in the series on K562/A02 (read-out: IC50), 45.3 µM.
The matching figures for `COc1cc2c(cc1OC)CN(CCNC(=O)c1ccc(C)c(Nc3nccc(-c4ccccc4)n3)c1)CC2`: 1.9, above 100 µM, 4740 µM, above 100 µM and 66.2 µM.
The matching figures for `COc1cc2c(cc1OC)CN(CCc1ccc(NC(=O)c3ccc(C)c(Nc4nccc(-c5cccs5)n4)c3)cc1)CC2`: 1.48, above 100 µM, above 100 µM, above 100 µM and above 100 µM.
In the case of `Cc1ccc(NC(=O)c2ccc(CN3CCN(C)CC3)cc2)cc1Nc1nccc(-c2cccnc2)n1` [IMATINIB], the half-maximal inhibitory concentration (IC50) in the series on MDCK-II [2] was 65.8 µM; with MDCK-II [3], above 100 µM; in the series with K562 [4] it was 87.3 µM; in the series on K562/A02 it was 75.7 µM. Besides, the viability at 5 µM with K562 [7] was 81.6%.
For the compound `COc1cc2c(cc1OC)CN(CCNC(=O)c1ccc(C)c(Nc3nccc(-c4ccccc4O)n3)c1)CC2`, in [1], the logP stood at 2.31. The half-inhibitory concentration (IC50) in the series with MDCK-II [2] was 91.4 µM; in the series with K562 [4], above 100 µM; in the series on K562/A02 (read-out: IC50) it was 52.3 µM.
Regarding `COc1cc2c(cc1OC)CN(CCNC(=O)c1ccc(C)c(Nc3nccc(-c4cccs4)n3)c1)CC2`, in series [1], the logP was found to be 1.94. For the same compound, the 50% inhibitory concentration (IC50) in the series on MDCK-II [2] was above 100 µM; in the series with MDCK-II [3], 61.5 µM; in the series with K562 [4], above 100 µM; in the series with K562/A02 (read-out: IC50) it was 72 µM.
On to `COc1cc2c(cc1OC)CN(CCc1ccc(NC(=O)c3cc(=O)c4cc(F)ccc4o3)cc1)CC2`, for which the 50% inhibitory concentration (IC50) with MDCK-II [2] is above 100 µM; in the series on MDCK-II [3], above 100 µM; with K562 [4], above 100 µM; with K562/A02 (read-out: IC50), 82 µM.
`COc1cc2c(cc1OC)CN(CCNC(=O)c1ccc(C)c(Nc3nccc(-c4cccnc4)n3)c1)CC2`: the logP in series [1] was determined as 0.8. The half-inhibitory concentration (IC50) in the series on MDCK-II [2], in the series with MDCK-II [3], in the series with K562 [4] and in the series on K562/A02 (read-out: IC50) was above 100 µM each time.
Turning to `COc1ccc2c3c([nH]c2c1)[C@H](CC(C)C)N1C(=O)[C@H](CCC(=O)OC(C)(C)C)NC(=O)[C@@H]1C3`, the IC50 in the series on MDCK-II [2] was 87.2 µM; with MDCK-II [3] it was 58.3 µM; with K562 [4] it was 71.5 µM; with K562/A02 (read-out: IC50), 58.7 µM. For the same compound, the outcome in the series with MDCK-II [8] was Active.
Turning to `COc1cc2c(cc1OC)CN(CCNC(=O)c1ccc(C)c(Nc3nccc(-c4ccc(C)cc4)n3)c1)CC2`, the IC50 in the series with MDCK-II [2] is above 100 µM; in the series with MDCK-II [3], 42.1 µM; in the series on K562 [4], 73.8 µM; in the series on K562/A02 (read-out: IC50), 58.7 µM.
In turn, `COc1ccc(-c2ccnc(Nc3cc(C(=O)NCCN4CCc5cc(OC)c(OC)cc5C4)ccc3C)n2)cc1` came in with a log partition coefficient (logP) in series [1] of 2.16. The IC50 was above 100 µM with MDCK-II [2], 55.2 µM in the series with MDCK-II [3], above 100 µM with K562 [4] and 64.9 µM in the series with K562/A02 (read-out: IC50).
In turn, `COc1cc2c(cc1OC)CN(CCc1ccc(NC(=O)c3ccc(C)c(Nc4nccc(-c5ccco5)n4)c3)cc1)CC2` had a lipophilicity (logP) in [1] of 1.7. The IC50 in the series with MDCK-II [2], with MDCK-II [3], with K562 [4] and in the series with K562/A02 (read-out: IC50) was above 100 µM throughout.
With `COc1cc2c(cc1OC)CN(CCc1ccc(NC(=O)c3cc(OC)c(OC)cc3NC(=O)c3cnc4ccccc4c3)cc1)CC2`, the Activity result in [5] is given as “Dose-Dependent Effect”; in series [6] it was “Active”. Further, the IC50 was above 100 µM in the series on MDCK-II [2], 83.6 µM in the series with MDCK-II [3], above 100 µM with K562 [4] and above 100 µM in the series with K562/A02 (read-out: IC50). Further, the viability at 5 µM in the series with K562 [7] was found to be 61.3%. For the same compound, in the series with MDCK-II [8], the outcome was Active.
In the case of `COc1cc2c(cc1OC)CN(CCNC(=O)c1ccc(C)c(Nc3nccc(-c4cccc(O)c4)n3)c1)CC2`, the concentration for half-maximal inhibition (IC50) with MDCK-II [2] was above 100 µM; in the series on MDCK-II [3] it was 72.6 µM; in the series on K562 [4], above 100 µM; in the series with K562/A02 (read-out: IC50), 57.5 µM.
In turn, `COc1cc2c(cc1OC)CN(CCNC(=O)c1ccc(C)c(Nc3nccc(-c4ccccn4)n3)c1)CC2` displayed a logP in series [1] of 1.71. In addition, the 50% inhibitory concentration (IC50) in the series on MDCK-II [2] is above 100 µM; in the series on MDCK-II [3], 64.2 µM; in the series with K562 [4], above 100 µM; in the series on K562/A02 (read-out: IC50) it was 89.6 µM.
The compound `COc1cc2c(cc1OC)CN(CCc1ccc(NC(=O)c3ccc(C)c(Nc4nccc(-c5ccccc5O)n4)c3)cc1)CC2` yielded a logP in series [1] of 2.77. The 50% inhibitory concentration (IC50) in the series on MDCK-II [2], with MDCK-II [3], with K562 [4] and in the series on K562/A02 (read-out: IC50) was above 100 µM throughout.
In the case of `COc1cc2c(cc1OC)CN(CCc1ccc(NC(=O)c3ccc(C)c(Nc4nccc(-c5ccc(F)cc5)n4)c3)cc1)CC2`, in series [1], the log partition coefficient (logP) was determined as 1.19. In addition, the IC50 in the series on MDCK-II [2], in the series on MDCK-II [3], with K562 [4] and in the series on K562/A02 (read-out: IC50) was above 100 µM each time.
As for `COc1cc2c(cc1OC)CN(CCNC(=O)c1ccc(C)c(Nc3nccc(-c4ccc(F)cc4)n3)c1)CC2`, in [1], the logP came out at 2.04. In addition, the IC50 is above 100 µM with MDCK-II [2], 57.6 µM in the series with MDCK-II [3], above 100 µM in the series on K562 [4] and 75.3 µM in the series on K562/A02 (read-out: IC50).
Take `COc1cc2c(cc1OC)CN(CCc1ccc(NC(=O)c3cc(=O)c4ccc(C)cc4o3)cc1)CC2`: the logP in series [1] worked out at 1.87. For the same compound, the IC50 in the series with MDCK-II [2] was above 100 µM; in the series on MDCK-II [3], 88.7 µM; in the series with K562 [4], above 100 µM; with K562/A02 (read-out: IC50) it was above 100 µM.
Compound `COc1cc2c(cc1OC)CN(CCc1ccc(NC(=O)c3ccc(C)c(Nc4nccc(-c5cccc(O)c5)n4)c3)cc1)CC2` displayed a logP in series [1] of 2.28. For the same compound, the IC50 in the series with MDCK-II [2] is above 100 µM; with MDCK-II [3], above 100 µM; with K562 [4], above 100 µM; with K562/A02 (read-out: IC50), 84.2 µM.
`COc1ccc(-c2ccnc(Nc3cc(C(=O)Nc4ccc(CCN5CCc6cc(OC)c(OC)cc6C5)cc4)ccc3C)n2)cc1`: the log partition coefficient (logP) in series [1] is 1.35. Moreover, the half-maximal inhibitory concentration (IC50) in the series with MDCK-II [2], in the series on MDCK-II [3], with K562 [4] and in the series on K562/A02 (read-out: IC50) was above 100 µM each time.
For the compound `COc1cc2c(cc1OC)CN(CCc1ccc(NC(=O)c3ccc(C)c(Nc4nccc(-c5ccccn5)n4)c3)cc1)CC2`, in [1], the logP worked out at 1.73. In addition, the IC50 with MDCK-II [2] is above 100 µM; in the series with MDCK-II [3], above 100 µM; with K562 [4] it was above 100 µM; with K562/A02 (read-out: IC50), 89.6 µM.

For orientation: logP means a log measure of how a compound divides between an organic and an aqueous phase. In general, IC50 refers to the concentration that gives 50% inhibition.
